Target: MDM2 (Homo sapiens, UniProt Q00987)
Test: MDM2 binding screen of Libraries 3 and 4: displacement of fluorescent probe F-M8 at 750 nM macrocycle
Details: Panel b, Library 3: 63 scaffolds combinatorially acylated with 15 carboxylic acids at 30 picomole scale; displacement of fluorescent peptide probe; macrocycle 750 nM
Outline: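 Competition with nutlin-3a was run using the fluorescein conjugate. Library members came from scaffolds reacted 6 h at room temperature with carboxylic acids (20 equiv.), HBTU and DABCO in DMSO. Quenching was overnight in Tris-Cl pH 7.4 buffer with 0.01% Tween20.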

Sequence of MDM2 (Q00987 whole entry): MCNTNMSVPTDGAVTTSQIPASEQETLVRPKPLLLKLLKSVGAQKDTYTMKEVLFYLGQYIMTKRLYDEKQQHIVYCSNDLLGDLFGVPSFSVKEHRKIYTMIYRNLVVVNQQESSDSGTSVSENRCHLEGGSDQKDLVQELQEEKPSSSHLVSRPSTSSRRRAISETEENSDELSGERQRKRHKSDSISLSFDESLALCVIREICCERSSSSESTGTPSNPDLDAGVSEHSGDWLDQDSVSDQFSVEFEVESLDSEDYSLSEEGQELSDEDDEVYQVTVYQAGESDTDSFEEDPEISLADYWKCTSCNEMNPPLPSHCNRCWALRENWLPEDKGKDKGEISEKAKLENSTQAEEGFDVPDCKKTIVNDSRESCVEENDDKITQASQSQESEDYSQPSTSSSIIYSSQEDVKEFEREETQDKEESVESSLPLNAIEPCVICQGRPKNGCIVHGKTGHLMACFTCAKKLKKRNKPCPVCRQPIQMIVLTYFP

SMILES	fraction of fluorescent probe displaced
Cn1cc(C[C@@H]2NC(=O)[C@@H](CNC(=O)c3cccc(Oc4ccccc4)c3)NC(=O)[C@H]3CCCN(C3)C(=O)CCSSCCNC2=O)c2ccccc21 [X-Nip-D-Dap-Me-Trp + Acid 111]	0.048
Cn1cc(C[C@@H]2NC(=O)[C@@H](CNC(=O)/C=C/c3ccc4ccccc4c3)NC(=O)[C@H]3CCCN(C3)C(=O)CCSSCCNC2=O)c2ccccc21 [X-Nip-D-Dap-Me-Trp + Acid 112]	0.021
Cn1cc(C[C@@H]2NC(=O)[C@@H](CNC(=O)CCS(=O)(=O)c3ccccc3)NC(=O)[C@H]3CCCN(C3)C(=O)CCSSCCNC2=O)c2ccccc21 [X-Nip-D-Dap-Me-Trp + Acid 114]	0.015
Cn1cc(C[C@@H]2NC(=O)[C@@H](CNC(=O)C3COc4ccccc4O3)NC(=O)[C@H]3CCCN(C3)C(=O)CCSSCCNC2=O)c2ccccc21 (stereo partly drawn) [X-Nip-D-Dap-Me-Trp + Acid 115]	-0.012
CN1C(=O)[C@@H](CNC(=O)c2ccc(Cl)s2)NC(=O)[C@H]2CCCN(C2)C(=O)CCSSCCNC(=O)[C@@H]1Cc1c[nH]c2ccccc12 [X-Nip-D-Dap-NMe-Trp + Acid 14]	0.00133
CN1C(=O)[C@@H](CNC(=O)c2ccc(Cl)cc2)NC(=O)[C@H]2CCCN(C2)C(=O)CCSSCCNC(=O)[C@@H]1Cc1c[nH]c2ccccc12 [X-Nip-D-Dap-NMe-Trp + Acid 25]	0.00133
CN1C(=O)[C@@H](CNC(=O)/C=C/c2ccncc2)NC(=O)[C@H]2CCCN(C2)C(=O)CCSSCCNC(=O)[C@@H]1Cc1c[nH]c2ccccc12 [X-Nip-D-Dap-NMe-Trp + Acid 106]	-0.00844
CN1C(=O)[C@@H](CNC(=O)c2ccc3ccccc3c2)NC(=O)[C@H]2CCCN(C2)C(=O)CCSSCCNC(=O)[C@@H]1Cc1c[nH]c2ccccc12 [X-Nip-D-Dap-NMe-Trp + Acid 107]	0.031
CN1C(=O)[C@@H](CNC(=O)/C=C/c2ccc(OCc3ccccc3)cc2)NC(=O)[C@H]2CCCN(C2)C(=O)CCSSCCNC(=O)[C@@H]1Cc1c[nH]c2ccccc12 [X-Nip-D-Dap-NMe-Trp + Acid 110]	-0.00533
CN1C(=O)[C@@H](CNC(=O)CCS(=O)(=O)c2ccccc2)NC(=O)[C@H]2CCCN(C2)C(=O)CCSSCCNC(=O)[C@@H]1Cc1c[nH]c2ccccc12 [X-Nip-D-Dap-NMe-Trp + Acid 114]	0.008
O=C(NC[C@H]1NC(=O)[C@H]2CCCN(C2)C(=O)CCSSCCNC(=O)[C@H](Cc2c[nH]c3ccccc23)NC1=O)c1ccc(Cl)cc1 [X-Nip-D-Dap-Trp + Acid 25]	-0.00533
O=C(/C=C/c1ccncc1)NC[C@H]1NC(=O)[C@H]2CCCN(C2)C(=O)CCSSCCNC(=O)[C@H](Cc2c[nH]c3ccccc23)NC1=O [X-Nip-D-Dap-Trp + Acid 106]	-0.002
O=C(NC[C@H]1NC(=O)[C@H]2CCCN(C2)C(=O)CCSSCCNC(=O)[C@H](Cc2c[nH]c3ccccc23)NC1=O)c1cccc(Oc2ccccc2)c1 [X-Nip-D-Dap-Trp + Acid 111]	0.008
O=C(/C=C/c1ccc2ccccc2c1)NC[C@H]1NC(=O)[C@H]2CCCN(C2)C(=O)CCSSCCNC(=O)[C@H](Cc2c[nH]c3ccccc23)NC1=O [X-Nip-D-Dap-Trp + Acid 112]	-0.012
CC(Oc1cccc(Cl)c1)C(=O)NC[C@H]1NC(=O)[C@H]2CCCN(C2)C(=O)CCSSCCNC(=O)[C@H](Cc2c[nH]c3ccccc23)NC1=O (stereo partly drawn) [X-Nip-D-Dap-Trp + Acid 113]	-0.019
O=C(CCS(=O)(=O)c1ccccc1)NC[C@H]1NC(=O)[C@H]2CCCN(C2)C(=O)CCSSCCNC(=O)[C@H](Cc2c[nH]c3ccccc23)NC1=O [X-Nip-D-Dap-Trp + Acid 114]	-0.00533
O=C(NC[C@@H]1NC(=O)[C@H]2CCCN(C2)C(=O)CCSSCCNC(=O)[C@H](Cc2cccc3ccccc23)NC1=O)c1ccc(Cl)s1 [X-Nip-Dap-1-NaI + Acid 14]	0.028

Next, values leading:

fraction of fluorescent probe displaced	SMILES
0.056	O=C(NC[C@@H]1NC(=O)[C@H]2CCCN(C2)C(=O)CCSSCCNC(=O)[C@H](Cc2cccc3ccccc23)NC1=O)c1ccc2ccccc2c1 [X-Nip-Dap-1-NaI + Acid 107]
0.041	O=C(/C=C/c1ccc(Cl)cc1)NC[C@@H]1NC(=O)[C@H]2CCCN(C2)C(=O)CCSSCCNC(=O)[C@H](Cc2cccc3ccccc23)NC1=O [X-Nip-Dap-1-NaI + Acid 108]
0.008	O=C(/C=C/c1ccc(OCc2ccccc2)cc1)NC[C@@H]1NC(=O)[C@H]2CCCN(C2)C(=O)CCSSCCNC(=O)[C@H](Cc2cccc3ccccc23)NC1=O [X-Nip-Dap-1-NaI + Acid 110]
0.095	O=C(/C=C/c1ccc2ccccc2c1)NC[C@@H]1NC(=O)[C@H]2CCCN(C2)C(=O)CCSSCCNC(=O)[C@H](Cc2cccc3ccccc23)NC1=O [X-Nip-Dap-1-NaI + Acid 112]
-0.019	CC(Oc1cccc(Cl)c1)C(=O)NC[C@@H]1NC(=O)[C@H]2CCCN(C2)C(=O)CCSSCCNC(=O)[C@H](Cc2cccc3ccccc23)NC1=O (stereo partly drawn) [X-Nip-Dap-1-NaI + Acid 113]

Same assay, conditions: Panel c, Library 4: best nine scaffolds and 15 additional carboxylic acids; displacement of fluorescent probe

fraction of fluorescent probe displaced	SMILES
0.052	O=C(/C=C/c1ccc(F)cc1)NC[C@@H]1NC(=O)[C@H]2CCCN(C2)C(=O)CCSSCCNC(=O)[C@H](Cc2cccc3ccccc23)NC1=O [X-Nip-Dap-1-NaI + Acid 116]
0.069	CCOc1ccc(/C=C/C(=O)NC[C@@H]2NC(=O)[C@H]3CCCN(C3)C(=O)CCSSCCNC(=O)[C@H](Cc3cccc4ccccc34)NC2=O)cc1 [X-Nip-Dap-1-NaI + Acid 117]
-0.00464	CCCOc1ccc(/C=C/C(=O)NC[C@@H]2NC(=O)[C@H]3CCCN(C3)C(=O)CCSSCCNC(=O)[C@H](Cc3cccc4ccccc34)NC2=O)cc1 [X-Nip-Dap-1-NaI + Acid 118]
0.0035	O=C(/C=C/c1ccc(Cl)c(Cl)c1)NC[C@@H]1NC(=O)[C@H]2CCCN(C2)C(=O)CCSSCCNC(=O)[C@H](Cc2cccc3ccccc23)NC1=O [X-Nip-Dap-1-NaI + Acid 119]
-0.00464	O=C(/C=C/c1cccc(Cl)c1)NC[C@@H]1NC(=O)[C@H]2CCCN(C2)C(=O)CCSSCCNC(=O)[C@H](Cc2cccc3ccccc23)NC1=O [X-Nip-Dap-1-NaI + Acid 121]
0.0035	O=C(/C=C/c1cccc(C(F)(F)F)c1)NC[C@@H]1NC(=O)[C@H]2CCCN(C2)C(=O)CCSSCCNC(=O)[C@H](Cc2cccc3ccccc23)NC1=O [X-Nip-Dap-1-NaI + Acid 122]
-0.013	CC(=Cc1ccccc1)C(=O)NCC1NC(=O)C2CCCN(C2)C(=O)CCSSCCNC(=O)C(Cc2cccc3ccccc23)NC1=O (stereo not drawn) [X-Nip-Dap-1-NaI + Acid 123]
0.0035	CC(C)c1ccc(/C=C/C(=O)NC[C@@H]2NC(=O)[C@H]3CCCN(C3)C(=O)CCSSCCNC(=O)[C@H](Cc3cccc4ccccc34)NC2=O)cc1 [X-Nip-Dap-1-NaI + Acid 127]
0.020	O=C(NC[C@@H]1NC(=O)[C@H]2CCCN(C2)C(=O)CCSSCCNC(=O)[C@H](Cc2cccc3ccccc23)NC1=O)c1cnc2ccccc2n1 [X-Nip-Dap-1-NaI + Acid 130]

— article PMC9250534, “Synthesis and direct assay of large macrocycle diversities by combinatorial late-stage modification at picomole scale” (Nature Communications, 2022)
